Laboratory results taken from patent publication US20050239656A1, “Pyridine compounds or salts thereof and herbicides containing the same” (priority 2002, published 2005).

system: barnyardgrass; test: Test Example 1: foliage treatment, upland pot test; assay type: in vivo, Echinochloa crus-galli L.; conditions: active ingredient 500 g/ha, observed 18th to 23rd day, 0 = non-treated, 100 = complete kill
Outline: (§1)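 Crops and weeds were sown in upland soil pots and sprayed post-emergence at set leaf stages (soybean 0.1–0.4, wheat 1.3–2.4, rice 1.2–2.6, barnyardgrass 1.3–2.8). Formulated compound was applied in 500 L/ha water with 0.1% spreader. Growth control (0–100%) was rated visually 18–23 days later.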

Compound | Growth controlling degree (%) Barnyardgrass [%]
CC(C)C(c1cnccc1C(F)(F)F)N(C)C(=O)CC(C)(C)C (stereo not drawn) [I-194] | 70

system: crabgrass; test: Test Example 1: foliage treatment, upland pot test; assay type: in vivo, Digitaria sanguinalis L.; conditions: active ingredient 500 g/ha, observed 18th to 23rd day, 0 = non-treated, 100 = complete kill

Compound | Growth controlling degree (%) Crabgrass [%]
CC(C)C(c1cnccc1C(F)(F)F)N(C)C(=O)CC(C)(C)C (stereo not drawn) [I-194] | 80

system: green foxtail; test: Test Example 1: foliage treatment, upland pot test; assay type: in vivo, Setaria viridis L.; conditions: active ingredient 500 g/ha, observed 18th to 23rd day, 0 = non-treated, 100 = complete kill

Compound | Growth controlling degree (%) Green foxtail [%]
CC(C)C(c1cnccc1C(F)(F)F)N(C)C(=O)CC(C)(C)C (stereo not drawn) [I-194] | 70

system: redroot pigweed; test: Test Example 1: foliage treatment, upland pot test; assay type: in vivo, Amaranthus retroflexus L.; conditions: active ingredient 500 g/ha, observed 18th to 23rd day, 0 = non-treated, 100 = complete kill

Compound | Growth controlling degree (%) Redroot pigweed [%]
CC(C)C(c1cnccc1C(F)(F)F)N(C)C(=O)CC(C)(C)C (stereo not drawn) [I-194] | 50

system: prickly sida; test: Test Example 1: foliage treatment, upland pot test; assay type: in vivo, Sida spinosa L.; conditions: active ingredient 500 g/ha, observed 18th to 23rd day, 0 = non-treated, 100 = complete kill

Compound | Growth controlling degree (%) Prickly sida [%]
CC(C)C(c1cnccc1C(F)(F)F)N(C)C(=O)CC(C)(C)C (stereo not drawn) [I-194] | 70

system: velvetleaf; test: Test Example 1: foliage treatment, upland pot test; assay type: in vivo, Abutilon theophrasti MEDIC.; conditions: active ingredient 500 g/ha, observed 18th to 23rd day, 0 = non-treated, 100 = complete kill

Compound | Growth controlling degree (%) Velvetleaf [%]
CC(C)C(c1cnccc1C(F)(F)F)N(C)C(=O)CC(C)(C)C (stereo not drawn) [I-194] | 10

system: rice; test: Test Example 1: foliage treatment, upland pot test; assay type: in vivo, Oryza sativa L.; conditions: crop, active ingredient 500 g/ha, observed 18th to 23rd day, 0 = non-treated, 100 = complete kill
Outline: as §1

Compound | Growth controlling degree (%) Rice [%]
CC(C)C(c1cnccc1C(F)(F)F)N(C)C(=O)CC(C)(C)C (stereo not drawn) [I-194] | 50

system: wheat; test: Test Example 1: foliage treatment, upland pot test; assay type: in vivo, Triticum spp.; conditions: crop, active ingredient 500 g/ha, observed 18th to 23rd day, 0 = non-treated, 100 = complete kill
Outline: as §1

Compound | Growth controlling degree (%) wheat [%]
CC(C)C(c1cnccc1C(F)(F)F)N(C)C(=O)CC(C)(C)C (stereo not drawn) [I-194] | 40

system: corn; test: Test Example 1: foliage treatment, upland pot test; assay type: in vivo, Zea mays L.; conditions: crop, active ingredient 500 g/ha, observed 18th to 23rd day, 0 = non-treated, 100 = complete kill
Outline: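 Corn seeds were sown in upland field soil held in a 1/170,000 ha pot and grown to the 2.1 to 3.2 leaf stage. A wettable powder or emulsifiable concentrate of the test compound was diluted with water at 500 L/ha, given 0.1% (v/v) agricultural spreader, and sprayed onto the foliage with a small sprayer. Growth controlling degree (%) was scored visually 18th to 23rd days later, from 0 (non-treated) to 100 (complete kill).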

Compound | Growth controlling degree (%) Corn [%]
CC(C)C(c1cnccc1C(F)(F)F)N(C)C(=O)CC(C)(C)C (stereo not drawn) [I-194] | 20

system: soybean; test: Test Example 1: foliage treatment, upland pot test; assay type: in vivo, Glycine max Merr.; conditions: crop, active ingredient 500 g/ha, observed 18th to 23rd day, 0 = non-treated, 100 = complete kill
Outline: as §1

Compound | Growth controlling degree (%) Soybean [%]
CC(C)C(c1cnccc1C(F)(F)F)N(C)C(=O)CC(C)(C)C (stereo not drawn) [I-194] | 40

system: barnyardgrass; test: Test Example 2: soil surface treatment, upland pot test; assay type: in vivo, Echinochloa crus-galli L.; conditions: active ingredient 250 g/ha, observed 20th to 28th day
Outline: (§2)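 Visual growth-control ratings (0 = untreated, 100 = complete kill) were taken 20–28 days after soil surface application. The spray was made one day post-sowing in upland soil pots, using formulated compound diluted with water at 1,500 L/ha at a set active ingredient rate.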

Compound | Growth controlling degree (%) Barnyardgrass [%]
CC(C)C(c1cnccc1C(F)(F)F)N(C)C(=O)CC(C)(C)C (stereo not drawn) [I-194] | 100

system: crabgrass; test: as above; assay type: in vivo, Digitaria sanguinalis L.; conditions: active ingredient 250 g/ha, observed 20th to 28th day
Outline: as §2

Compound | Growth controlling degree (%) Crabgrass [%]
CC(C)C(c1cnccc1C(F)(F)F)N(C)C(=O)CC(C)(C)C (stereo not drawn) [I-194] | 100

system: green foxtail; test: as above; assay type: in vivo, Setaria viridis L.; conditions: active ingredient 250 g/ha, observed 20th to 28th day
Outline: as §2

Compound | Growth controlling degree (%) Green foxtail [%]
CC(C)C(c1cnccc1C(F)(F)F)N(C)C(=O)CC(C)(C)C (stereo not drawn) [I-194] | 100

system: redroot pigweed; test: as above; assay type: in vivo, Amaranthus retroflexus L.; conditions: active ingredient 250 g/ha, observed 20th to 28th day
Outline: as §2

Compound | Growth controlling degree (%) Redroot pigweed [%]
CC(C)C(c1cnccc1C(F)(F)F)N(C)C(=O)CC(C)(C)C (stereo not drawn) [I-194] | 50

system: prickly sida; test: as above; assay type: in vivo, Sida spinosa L.; conditions: active ingredient 250 g/ha, observed 20th to 28th day
Outline: as §2

Compound | Growth controlling degree (%) Prickly sida [%]
CC(C)C(c1cnccc1C(F)(F)F)N(C)C(=O)CC(C)(C)C (stereo not drawn) [I-194] | 40

system: velvetleaf; test: as above; assay type: in vivo, Abutilon theophrasti MEDIC.; conditions: active ingredient 250 g/ha, observed 20th to 28th day
Outline: as §2

Compound | Growth controlling degree (%) Velvetleaf [%]
CC(C)C(c1cnccc1C(F)(F)F)N(C)C(=O)CC(C)(C)C (stereo not drawn) [I-194] | 30

system: rice; test: as above; assay type: in vivo, Oryza sativa L.; conditions: active ingredient 250 g/ha, observed 20th to 28th day
Outline: as §2

Compound | Growth controlling degree (%) Rice [%]
CC(C)C(c1cnccc1C(F)(F)F)N(C)C(=O)CC(C)(C)C (stereo not drawn) [I-194] | 40

system: wheat; test: as above; assay type: in vivo, Triticum spp.; conditions: active ingredient 250 g/ha, observed 20th to 28th day
Outline: as §2

Compound | Growth controlling degree (%) wheat [%]
CC(C)C(c1cnccc1C(F)(F)F)N(C)C(=O)CC(C)(C)C (stereo not drawn) [I-194] | 20

system: corn; test: as above; assay type: in vivo, Zea mays L.; conditions: active ingredient 250 g/ha, observed 20th to 28th day
Outline: as §2

Compound | Growth controlling degree (%) Corn [%]
CC(C)C(c1cnccc1C(F)(F)F)N(C)C(=O)CC(C)(C)C (stereo not drawn) [I-194] | 10

system: soybean; test: as above; assay type: in vivo, Glycine max Merr.; conditions: active ingredient 250 g/ha, observed 20th to 28th day
Outline: as §2

Compound | Growth controlling degree (%) Soyabean [%]
CC(C)C(c1cnccc1C(F)(F)F)N(C)C(=O)CC(C)(C)C (stereo not drawn) [I-194] | 10

system: barnyardgrass; test: Test Example 3: paddy pot test, application under submerged conditions; assay type: in vivo, Echinochloa crus-galli L.; conditions: active ingredient 250 g/ha; submerged application at 0.5 leaf stage; visually observed 14 days after application; 0 = non-treated, 100 = complete kill
Outline: (§3)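 Barnyardgrass and japanese bulrush sown in flooded paddy soil in greenhouse pots, japanese ribbon wapato tubers planted 1–2 days later; water depth kept at 3–4 cm. Diluted wettable powder or emulsifiable concentrate applied into water at 0.5-leaf or primary-leaf stage at set active-ingredient doses. Growth control scored visually at 14 days, 0 (untreated) to 100% (complete kill).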

Compound | Growth controlling degree (%) Barnyardgrass [%]
CC(C)C(c1cnccc1C(F)(F)F)N(C)C(=O)CC(C)(C)C (stereo not drawn) [I-194] | 98

system: japanese bulrush; test: as above; assay type: in vivo, Scirpus juncoides; conditions: active ingredient 250 g/ha; submerged application at 0.5 leaf stage; visually observed 14 days after application; 0 = non-treated, 100 = complete kill
Outline: as §3

Compound | Growth controlling degree (%) Japanese bulrush [%]
CC(C)C(c1cnccc1C(F)(F)F)N(C)C(=O)CC(C)(C)C (stereo not drawn) [I-194] | 98

system: japanese ribbon wapato; test: as above; assay type: in vivo, Sagittaria pygniaea; conditions: active ingredient 250 g/ha; submerged application at primary leaf stage; visually observed 14 days after application; 0 = non-treated, 100 = complete kill
Outline: as §3

Compound | Growth controlling degree (%) Japanese ribbon wapato [%]
CC(C)C(c1cnccc1C(F)(F)F)N(C)C(=O)CC(C)(C)C (stereo not drawn) [I-194] | 30

system: rice (var. Nihonbare); test: Test Example 3: paddy pot test, transplanted rice; assay type: in vivo, Oryza sativa L.; conditions: active ingredient 250 g/ha, applied 4th day after transplantation, visually observed 21st day after application, 0 = non-treated, 100 = complete kill
Outline: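 Rice (var. Nihonbare) at 2 leaf stage transplanted 3 cm deep into puddled paddy soil under 3–4 cm flooding; on day 4 after transplanting, diluted wettable powder or emulsifiable concentrate applied by pipette under submerged conditions at a set active-ingredient dose. Growth scored visually 21 days after application, 0 (untreated) to 100 (complete kill) %.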

Compound | Growth controlling degree (%) Rice [%]
CC(C)C(c1cnccc1C(F)(F)F)N(C)C(=O)CC(C)(C)C (stereo not drawn) [I-194] | 30
